Read-outs that look alike come from different tables or passages of the source.
What was measured:
Type in all cases: in vivo
Myzus persicae [1] = test: Myzus persicae oral test; settings: 120 h, read-out: efficacy
Experimental: Solvent: 100 parts by weight of acetone
To produce a suitable preparation of active compound, 1 part by weight of active compound is dissolved using the specified parts by weight of solvent and made up with water until the desired concentration is attained.
50 μl of the active compound preparation are transferred into microtitre plates and made up to a final volume of 200 μl with 150 μl of IPL41 insect medium (33%+15% sugar). Subsequently, the plates are sealed with parafilm, which a mixed population of green peach aphids (Myzus persicae) within a second microtitre plate is able to puncture and imbibe the solution through it.
(§1) After 5 days, the efficacy in % is determined. 100% means that all the aphids have been killed; 0% means that no aphids have been killed.

Phaedon cochleariae = Phaedon cochleariae spray test; settings: foliar, 168 h, read-out: efficacy
Experimental: Phaedon cochleariae—Spray Test
(§2) Solvent: • 78.0 parts by weight of acetone • 1.5 parts by weight of dimethylformamide
(§3) Emulsifier: alkylaryl polyglycol ether
(§4) To produce a suitable active compound preparation, 1 part by weight of active compound is dissolved using the stated parts by weight of solvent and made up with water containing an emulsifier concentration of 1000 ppm until the desired concentration is attained. To produce further test concentrations, the formulation is diluted with emulsifier-containing water.
Discs of Chinese cabbage leaves (Brassica pekinensis) are sprayed with an active compound formulation of the desired concentration and, after drying, populated with larvae of the mustard beetle (Phaedon cochleariae).
After 7 days, the efficacy in % is determined. 100% means that all the beetle larvae have been killed; 0% means that no beetle larvae have been killed.

Myzus persicae [2] = test: Myzus persicae spray test; settings: foliar, 120 h, application rate 100 g/ha, Chinese cabbage leaf discs, after 5 days, read-out: efficacy
Experimental: Myzus persicae—Spray Test
(§5) Solvent: • 78 parts by weight of acetone • 1.5 parts by weight of dimethylformamide
as §3, §4
Discs of Chinese cabbage leaves (Brassica pekinensis) infested by all stages of the green peach aphid (Myzus persicae) are sprayed with an active compound formulation of the desired concentration.
as §1

Spodoptera frugiperda = Spodoptera frugiperda spray test; settings: foliar, 168 h, read-out: efficacy
Experimental: Spodoptera frugiperda—Spray Test
as §2, §3
To produce further test concentrations, the formulation is diluted with emulsifier-containing water.
After 7 days, the efficacy in % is determined. 100% means that all the caterpillars have been killed; 0% means that no caterpillar has been killed.

Ctenocephalides felis = Ctenocephalides felis oral test; settings: 48 h, application rate 100 ppm, in citrated cattle blood, after 2 days, read-out: efficacy (kill in %)
Experimental: Ctenocephalides felis—Oral Test
Solvent: Dimethyl sulfoxide
To produce a suitable active compound formulation, 10 mg of active compound are mixed with 0.5 ml of dimethyl sulfoxide. Dilution with citrated cattle blood gives the desired concentration.
About 20 unfed adult cat fleas (Ctenocephalides felis) are placed into a chamber which is closed at the top and bottom with gauze. A metal cylinder whose bottom end is closed with parafilm is placed onto the chamber. The cylinder contains the blood/active compound formulation, which can be imbibed by the fleas through the parafilm membrane.
After 2 days, the kill in % is determined. 100% means that all of the fleas have been killed; 0% means that none of the fleas have been killed.

Meloidogyne incognita = Meloidogyne incognita test; settings: 336 h, application rate 20 ppm, lettuce, after 14 days, formation of galls, read-out: nematicidal efficacy
Experimental: Meloidouyne incognita Test
Solvent: 125.0 parts by weight of acetone
To produce a suitable active compound formulation, 1 part by weight of active compound is mixed with the stated amount of solvent and the concentrate is diluted to the desired concentration with water.
Vessels are filled with sand, active compound solution, an egg/larvae suspension of the southern root-knot nematode (Meloidogyne incognita) and lettuce seeds. The lettuce seeds germinate and the plants develop. The galls develop on the roots.
After 14 days, the nematicidal efficacy in % is determined by the formation of galls. 100% means that no galls were found; 0% means that the number of galls on the treated plants corresponds to the untreated control.

Diabrotica balteata = Diabrotica balteata spray test; settings: 168 h, application rate 160 μg/cavity (μg/well), wheat grains, after 7 days, read-out: efficacy
Experimental: Diabrotica balteata—Spray Test
as §5, §3, §4
Pre-swollen wheat grains (Triticum aestivum) are incubated in a multiwell plate filled with agar and a little water for one day (5 seed grains per well). The germinated wheat grains are sprayed with an active compound preparation of the desired concentration. Subsequently, each cavity is infected with 10-20 beetle larvae of Diabrotica balteata.
After 7 days, the efficacy in % is determined. 100% means that all wheat plants have grown as in the untreated, uninfected control; 0% means that no wheat plant has grown.

[3] = application rate 4 ppm, after 5 days
[4] = application rate 100 g/ha, Chinese cabbage leaf discs, after 7 days
[5] = application rate 100 g/ha, maize leaf discs, after 7 days

Structure (SMILES)	pest or weed control at 4 ppm (Myzus persicae [1]; [3])	pest or weed control at 100 g/ha (Phaedon cochleariae; [4])	pest or weed control at 100 g/ha (Myzus persicae [2])	pest or weed control at 100 g/ha (Spodoptera frugiperda; [5])	pest or weed control at 100 ppm (Ctenocephalides felis)	pest or weed control at 20 ppm (Meloidogyne incognita)	pest or weed control at 160 µg/well (Diabrotica balteata)	pest or weed control at 4 ppm (Myzus persicae [1])	pest or weed control at 100 g/ha (Phaedon cochleariae; in Brassica rapa)	pest or weed control at 100 g/ha (Spodoptera frugiperda; in Zea mays)
CCS(=O)(=O)c1c(-c2nc3cc(C(F)(F)F)cnc3n2C)ncc2cc(C#N)ccc12 [Example I-001]	100%	100%	90%	100%						
CCS(=O)(=O)c1c(-c2nc3cc(C(F)(F)F)cnc3n2C)ncc2cc(SCC(F)(F)F)ccc12 [Example I-002]	100%	100%	90%							
CCS(=O)(=O)c1c(-c2nc3cc(C(F)(F)F)nnc3n2C)ncc2cc(C)ccc12 [Example I-003]	100%		90%		80%					
CCS(=O)(=O)c1c(-c2nc3cc(C(F)(F)F)cnc3n2C)ncc2c(Br)cccc12 [Example I-004]	100%			100%		90%	100%			
CCS(=O)(=O)c1c(-c2nc3cc(C(F)(F)C(F)(F)F)cnc3n2C)ncc2c(Br)cccc12 [Example I-006]	90%		100%	100%		90%	100%			
CCS(=O)(=O)c1c(-c2nc3cc(C(F)(F)F)cnc3n2C)ncc2cc(C3CC3)ccc12 [Example I-007]	100%	100%		67%						
CCS(=O)(=O)c1c(-c2nc3cc(C(F)(F)F)nnc3n2C)ncc2cc(Cl)ccc12 [Example I-008]	100%	100%		100%	100%	100%				
CCS(=O)(=O)c1c(-c2nc3cc(C(F)(F)F)ncc3n2C)ncc2c(C(F)(F)F)cccc12 [Example I-013]	100%	100%	100%	100%	100%					
CCS(=O)(=O)c1c(-c2nc3cc(C(F)(F)C(F)(F)F)cnc3n2C)ncc2c(C(F)(F)F)cccc12 [Example I-014]	90%	100%	100%	100%						
CCS(=O)(=O)c1c(-c2nc3cc(C(F)(F)C(F)(F)F)ncc3n2C)ncc2c(C#N)cccc12 [Example I-020]	100%		90%	100%		90%	100%			
CCS(=O)(=O)c1c(-c2nc3cc(C(F)(F)F)cnc3n2C)ncc2ccc(C(F)(F)F)cc12 [Example I-021]	100%	100%		100%						
CCS(=O)(=O)c1c(-c2nc3cc(C(F)(F)F)cnc3n2C)ncc2cc(NC(=O)OC)ccc12 [Example I-022]								100%	100%	100%
CCS(=O)(=O)c1c(-c2nc3cc(OC(F)(F)F)cnc3n2C)ncc2c(C(F)(F)F)cccc12 [Example I-024]	100%	100%	90%	100%	80%					
CCS(=O)(=O)c1c(-c2nc3cc(C(F)(F)F)cnc3n2C)ncc2c(C#N)cccc12 [Example I-026]	90%	100%	100%	100%		90%				
CCS(=O)(=O)c1c(-c2nc3cc(C(F)(F)F)nnc3n2C)ncc2c(Br)cccc12 [Example I-027]	100%		70%	100%		100%	100%			
CCS(=O)(=O)c1c(-c2nc3cc(S(=O)(=O)C(F)(F)F)cnc3n2C)ncc2c(Br)cccc12 [Example I-029]	100%		90%	100%			100%			
CCS(=O)(=O)c1c(-c2nc3cc(C(F)(F)F)cnc3n2C)ncc2cc(NC(C)=O)ccc12 [Example I-035]	100%	100%	90%							
CCS(=O)(=O)c1c(-c2nc3cc(C(F)(F)F)cnc3n2C)ncc2cc(NC(=O)C3CC3)ccc12 [Example I-038]	100%	100%		100%						
CCS(=O)(=O)c1c(-c2nc3cc(C(F)(F)F)nnc3n2C)ncc2cc(C(F)F)ccc12 [Example I-041]	100%		90%	100%		100%	100%			
CCS(=O)(=O)c1c(-c2nc3cc(C(F)(F)F)nnc3n2C)ncc2ccc(C(F)F)cc12 [Example I-042]	100%		100%	83%		90%	100%			
CCS(=O)(=O)c1c(-c2nc3cc(C(F)(F)C(F)(F)F)nnc3n2C)ncc2cc(Br)ccc12 [Example I-043]	100%		90%	100%			100%			
CCS(=O)(=O)c1c(-c2nc3cc(C(F)(F)F)nnc3n2C)ncc2ccc(C(F)(F)F)cc12 [Example I-045]	100%		100%	100%			100%			
